Where two headings read alike, the source gives them in different places.
Assays:
Assay in all cases: SelectScreen Kinase Profiling, single point inhibition and IC50 for off-target kinases
Type in all cases: biochemical
off-target kinases [1] = target: T1, off-target kinases (Homo sapiens, UniProt Q96PF2); conditions: STK22B (TSSK2), ZLYTE, ATP Km app
T1 sequence (Q96PF2 1-358): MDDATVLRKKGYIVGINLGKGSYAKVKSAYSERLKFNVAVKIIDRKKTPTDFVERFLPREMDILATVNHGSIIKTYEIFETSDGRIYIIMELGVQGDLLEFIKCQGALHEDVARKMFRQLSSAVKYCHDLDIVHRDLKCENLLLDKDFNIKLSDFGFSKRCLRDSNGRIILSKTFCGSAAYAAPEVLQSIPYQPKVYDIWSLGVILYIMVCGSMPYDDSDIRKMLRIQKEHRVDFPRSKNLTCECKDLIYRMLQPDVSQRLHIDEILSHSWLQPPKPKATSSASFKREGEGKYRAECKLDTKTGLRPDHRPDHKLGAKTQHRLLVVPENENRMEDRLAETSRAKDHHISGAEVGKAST

off-target kinases [2] = target: off-target kinases (Homo sapiens, UniProt P78527)
off-target kinases [3] = target: off-target kinases (Homo sapiens, UniProt P22607, K650E); conditions: FGFR3 K650E (mutant), ZLYTE, ATP Km app
off-target kinases [4] = target: T2, off-target kinases (Homo sapiens, UniProt P25098); conditions: ADRBK1 (GRK2), ZLYTE, ATP Km app
T2 sequence (P25098 1-689): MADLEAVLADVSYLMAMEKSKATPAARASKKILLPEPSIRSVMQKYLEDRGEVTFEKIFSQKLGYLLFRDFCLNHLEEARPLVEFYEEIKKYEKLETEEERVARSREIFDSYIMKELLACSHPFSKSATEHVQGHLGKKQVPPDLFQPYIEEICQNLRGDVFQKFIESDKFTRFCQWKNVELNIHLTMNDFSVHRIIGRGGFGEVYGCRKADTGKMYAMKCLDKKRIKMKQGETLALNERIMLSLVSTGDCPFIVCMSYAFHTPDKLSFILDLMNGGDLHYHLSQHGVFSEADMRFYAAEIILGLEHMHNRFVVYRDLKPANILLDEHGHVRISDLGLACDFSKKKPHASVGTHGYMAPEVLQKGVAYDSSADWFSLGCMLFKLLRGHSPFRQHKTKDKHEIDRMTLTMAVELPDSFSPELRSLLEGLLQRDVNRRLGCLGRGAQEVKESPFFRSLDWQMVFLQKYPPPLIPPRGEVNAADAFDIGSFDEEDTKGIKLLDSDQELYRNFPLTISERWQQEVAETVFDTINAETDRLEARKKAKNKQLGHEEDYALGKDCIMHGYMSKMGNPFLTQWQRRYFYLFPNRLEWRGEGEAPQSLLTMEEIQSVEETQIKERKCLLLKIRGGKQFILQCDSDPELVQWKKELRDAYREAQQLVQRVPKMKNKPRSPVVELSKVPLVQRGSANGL

off-target kinases [5] = target: off-target kinases (Homo sapiens, UniProt P31751); conditions: AKT2 (PKB beta), ZLYTE, ATP Km app
Chain of off-target kinases (Homo sapiens, UniProt P31751) (P31751 whole entry): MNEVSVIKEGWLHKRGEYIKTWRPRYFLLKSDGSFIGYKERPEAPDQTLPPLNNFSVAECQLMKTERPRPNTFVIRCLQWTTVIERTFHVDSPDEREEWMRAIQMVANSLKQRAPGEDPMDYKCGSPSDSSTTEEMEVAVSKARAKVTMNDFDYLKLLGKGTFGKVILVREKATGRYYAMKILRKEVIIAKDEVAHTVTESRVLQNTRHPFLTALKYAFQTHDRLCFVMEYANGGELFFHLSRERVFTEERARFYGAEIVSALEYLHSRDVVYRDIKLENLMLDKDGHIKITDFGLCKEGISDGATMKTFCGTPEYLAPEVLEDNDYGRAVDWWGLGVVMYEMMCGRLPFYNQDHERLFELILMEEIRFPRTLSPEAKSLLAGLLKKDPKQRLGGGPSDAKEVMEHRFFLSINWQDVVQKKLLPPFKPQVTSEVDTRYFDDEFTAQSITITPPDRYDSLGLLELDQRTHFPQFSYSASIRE

Chain of off-target kinases (Homo sapiens, UniProt P22607, K650E) (P22607 23-806 K650E): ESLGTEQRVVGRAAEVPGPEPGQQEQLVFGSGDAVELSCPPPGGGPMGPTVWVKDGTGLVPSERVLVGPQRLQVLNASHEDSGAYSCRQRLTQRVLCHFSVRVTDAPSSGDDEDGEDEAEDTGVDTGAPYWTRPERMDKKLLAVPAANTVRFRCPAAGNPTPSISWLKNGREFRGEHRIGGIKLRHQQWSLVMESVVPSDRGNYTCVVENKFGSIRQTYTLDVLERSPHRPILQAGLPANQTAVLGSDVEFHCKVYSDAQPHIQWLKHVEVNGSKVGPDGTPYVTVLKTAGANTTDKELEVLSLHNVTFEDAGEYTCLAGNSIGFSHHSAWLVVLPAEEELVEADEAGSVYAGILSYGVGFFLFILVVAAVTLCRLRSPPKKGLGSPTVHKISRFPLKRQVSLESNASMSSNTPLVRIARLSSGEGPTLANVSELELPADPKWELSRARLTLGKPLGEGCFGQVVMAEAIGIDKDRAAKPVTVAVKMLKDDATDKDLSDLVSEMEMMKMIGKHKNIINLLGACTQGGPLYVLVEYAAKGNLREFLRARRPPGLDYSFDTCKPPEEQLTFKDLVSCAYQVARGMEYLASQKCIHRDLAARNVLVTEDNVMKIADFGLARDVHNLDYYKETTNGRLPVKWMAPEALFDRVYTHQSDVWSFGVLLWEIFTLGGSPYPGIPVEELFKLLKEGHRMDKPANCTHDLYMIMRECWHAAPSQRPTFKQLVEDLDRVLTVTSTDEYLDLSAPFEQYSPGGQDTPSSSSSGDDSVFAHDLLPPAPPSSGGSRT

N#Cc1cc(-c2ncnc(Nc3ccc(N4CCN(C5COC5)CC4)cc3)n2)ccc1OC1CCOCC1 [Compound 1, 5-(4-((4-(4-(oxetan-3-yl)piperazin-1-yl)phenyl)amino)-1,3,5-triazin-2-yl)-2-((tetrahydro-2H-pyran-4-yl)oxy)benzonitrile]
inhibition (off-target kinases [1]; read-out: % Inhibition 1): 12% | inhibition (off-target kinases [1]; read-out: % Inhibition 2): 14% | inhibition (off-target kinases [1]; read-out: % Inhibition Avg): 13% | inhibition (off-target kinases [2]; DNA-PK, ZLYTE, ATP Km app, read-out: % Inhibition 1): 2% | inhibition (off-target kinases [2]; DNA-PK, ZLYTE, ATP Km app, read-out: % Inhibition 2): -4% | inhibition (off-target kinases [2]; read-out: % Inhibition Avg): -1% | inhibition (off-target kinases [3]; read-out: % Inhibition 1): 11% | inhibition (off-target kinases [3]; read-out: % Inhibition 2): 6% | inhibition (off-target kinases [3]; read-out: % Inhibition Avg): 8% | inhibition (off-target kinases [4]; read-out: % Inhibition 1): 3% | inhibition (off-target kinases [4]; read-out: % Inhibition 2): 7% | inhibition (off-target kinases [4]; read-out: % Inhibition Avg): 5% | inhibition (off-target kinases [5]; read-out: % Inhibition 1): 3% | inhibition (off-target kinases [5]; read-out: % Inhibition 2): 2% | inhibition (off-target kinases [5]; read-out: % Inhibition Avg): 3%

From US11572590B2, “Methods for evaluating tumor cell spheroids using 3D microfluidic cell culture device” (Dana-Farber Cancer Institute, Inc., priority 2017, dated 2023)
